# Measured values from publication PMC10004195, “Novel Dual-Target Kinase Inhibitors of EGFR and ALK Were Designed, Synthesized, and Induced Cell Apoptosis in Non-Small Cell Lung Cancer” (Molecules, 2023).
# Read-outs that look alike come from different tables or passages of the source.
# How the values were obtained:
# [1] = test system: H1975 (EGFR T790M/L858R) cells; assay: CCK8 antiproliferative assay, H1975 cells; format: cell-based, human; details: Homo sapiens
# Excerpt: (§1) The human cancer cell lines (H1975, H2228) used in this study were purchased from the Guangzhou ginny ou biotechnology Co., Ltd. (Guangzhou, China). The human cancer cell lines (NCI-H522) used in this study were purchased from the Shenzhen Haodi Huatuo Biotechnology Co., LTD (Shenzhen, China). The human cancer cell lines (LOVO, HLF, BJ, LO2) used in this study were purchased from the Laboratory Animal Service Center at Sun Yat-sen University (Guangzhou, China). […] Cell lines LOVO, HLF, BJ, and LO2 were cultivated in DMEM containing 10% (v/v) heat-inactivated fetal bovine serum (FBS), 100 units/mL penicillin, and 100 μg/mL streptomycin.
# p-ALK = assay: Western blot, p-ALK; format: cell-based, human; details: WB, 5, 10 and 100 nM, 3 h treatment
# Method: (§2) Four kinases (EGFR, EGFR^L858R/T790M, ALK, and EML4-ALK) were tested using an ELISA assay. […] There was no effect on the wild-type EGFR or ALK kinases triggered by the compound. Consequently, the selection of the compound was good as both compounds balanced IC50 against EGFR and ALK, respectively. […] Following that, fluorescence assays were used to measure the phosphorylation of the EGFR and ALK protein affect with compound 9j at the cellular level. […] Next, WB assay was used to test the protein expression of H1975 and H2228 cells at the concentration of 5, 10, and 100 nM.
# (§3) H1975 (H2228) cells seeded in 60 mm dishes at a density of 5 × 10^5 cells/well were incubated with or without compound 9j (0, 5, 10, 100 nM) for 2–4 h. After treatment, cells were stained as previously described.
# H1975 cells = assay: Wound-healing (cell scratching) assay; format: cell-based, human; details: H1975, 48 h; PBS group about 70%
# Method: The migration and invasion of tumor cells directly contribute to metastasis. Metastasis is the leading cause of death in cancer patients. To determine the ability of 9j to inhibit tumor cell migration, the cell scratching assay was performed. Following scratching, phase contrast pictures were taken of the scratched and healing cell monolayers.
# H1975 cells were plated in a six-well culture dish at 5 × 10^4 cells/dish and grown for 24 h, and […]. The medium was then replaced with a serum-free 1640 medium and treated with compound 9j at the indicated concentrations for another 24 h or 48 h. After the samples were washed with phosphate buffer solution (PBS), the cell images were immediately detected by a Zeiss LSM 570 laser scanning confocal microscope (Carl Zeiss, Jena, Germany).
# p-EGFR = assay: Western blot, p-EGFR; format: cell-based, human; details: WB, 5, 10 and 100 nM, 3 h treatment
# Method: as §2, §3
# [2] = test system: HLF (human embryonic lung fibroblast); assay: Cytotoxicity test on nontumorigenic cells, HLF; format: cell-based
# Excerpt: It is critical to evaluate the balance between the safety and efficacy of drugs for the development of new drugs; thus, we then conducted a cytotoxicity test on […] types of nontumorigenic cell lines from different origins, including LO2 (human normal liver cells), HK2 (human kidney proximal convoluted tubule epithelial cells), HLF (human embryonic lung fibroblast), 293A (human embryonic kidney cells), and HUVEC (human umbilical vein endothelial cells). […] In addition, we evaluated the compound’s safety in vivo by performing acute toxicity tests in mice, and 9j was injected intravenously at concentrations of 100 mg/kg, 150 mg/kg, and 300 mg/kg.
# A total of 7000 cells per well were seeded in a 96-well plate with at least three technical replicates; then, exposed to different concentrations (10, 5, 1, 0.1, 0.05, 0.01 uM) of the test compounds for 72 h. After the treatment, CCK8 (Sigma, St. Louis, MO, USA) was added to each well under sterile conditions (to a final concentration of 10% of the total volume) and the plates were incubated for 2–4 h at 37 °C. Absorbance was measured at 450 nm in a microplate reader.
# p-ERK = assay: Western blot, p-ERK; format: cell-based, human; details: WB, 5, 10 and 100 nM, 3 h treatment
# Method: as §2, §3
# EGFR wild-type kinase = EGFR wild-type kinase (Homo sapiens, UniProt P00533); assay: Kinase ELISA assay, wild-type EGFR; format: biochemical
# Method: as §2
# H2228 (EML4-ALK) cells = assay: CCK8 antiproliferative assay, H2228 cells; format: cell-based, human; details: Homo sapiens, NCI-H2228, 72 h, CCK8 assay, 72 h, H2228 (EML4-ALK); read-out: IC50 H2228
# Excerpt: as §1
# [3] = test system: phosphorylated ALK (p-ALK); assay: Immunofluorescence assay of phosphorylated ALK; format: cell-based, human; details: fluorescence assay, treatment for 2 to 4 h
# Method: as §2
# Figure 2 (A) The activity of compound 9j against four kinases (EGFR, ALK, EGFR ^L858R T790M, and EML4-ALK). (B) H1975 and H2228 cells were treated with 9j for 2–4 h; the staining for phosphorylated EGFR (p-EGFR) and phosphorylated ALK (p-ALK) was shown as red fluorescence. (C) WB analysis of phosphorylated proteins in drug-treated H1975 and H2228 cells.
# EGFR wild-type kinase, sequence (P00533 25-1210): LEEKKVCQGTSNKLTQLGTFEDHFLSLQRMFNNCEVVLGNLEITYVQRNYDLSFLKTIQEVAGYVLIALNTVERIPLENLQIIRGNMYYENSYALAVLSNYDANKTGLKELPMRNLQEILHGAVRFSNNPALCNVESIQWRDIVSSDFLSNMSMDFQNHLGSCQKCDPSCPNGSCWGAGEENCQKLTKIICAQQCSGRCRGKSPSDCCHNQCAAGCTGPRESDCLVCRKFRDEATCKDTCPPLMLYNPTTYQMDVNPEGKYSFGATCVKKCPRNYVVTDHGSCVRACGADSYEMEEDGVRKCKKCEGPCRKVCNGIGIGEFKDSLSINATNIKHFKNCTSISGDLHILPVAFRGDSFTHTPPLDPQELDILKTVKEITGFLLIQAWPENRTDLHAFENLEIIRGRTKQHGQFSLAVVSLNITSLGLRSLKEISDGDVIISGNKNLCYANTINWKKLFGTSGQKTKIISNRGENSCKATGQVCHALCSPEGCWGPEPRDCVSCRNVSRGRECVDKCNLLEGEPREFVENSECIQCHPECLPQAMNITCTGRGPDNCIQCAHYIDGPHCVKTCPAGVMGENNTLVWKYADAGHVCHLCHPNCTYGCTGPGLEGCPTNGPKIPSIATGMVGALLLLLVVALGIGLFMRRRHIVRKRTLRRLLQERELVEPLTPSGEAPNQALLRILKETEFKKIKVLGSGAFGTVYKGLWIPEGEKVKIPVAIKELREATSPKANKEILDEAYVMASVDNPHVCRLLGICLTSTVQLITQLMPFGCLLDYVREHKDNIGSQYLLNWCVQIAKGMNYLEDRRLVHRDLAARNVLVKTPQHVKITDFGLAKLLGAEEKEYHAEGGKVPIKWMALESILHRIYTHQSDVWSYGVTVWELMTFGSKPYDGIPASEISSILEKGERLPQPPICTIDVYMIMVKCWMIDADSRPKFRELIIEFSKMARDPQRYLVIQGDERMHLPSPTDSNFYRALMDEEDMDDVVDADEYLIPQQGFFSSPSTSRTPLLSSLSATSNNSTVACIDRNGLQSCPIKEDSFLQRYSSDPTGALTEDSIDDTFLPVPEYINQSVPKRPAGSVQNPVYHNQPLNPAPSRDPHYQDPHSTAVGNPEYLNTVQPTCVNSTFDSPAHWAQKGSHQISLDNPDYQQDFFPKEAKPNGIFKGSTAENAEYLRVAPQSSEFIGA
smiles,measurement,setting,value
"C=CC(=O)Nc1cc(Nc2ncc(Cl)c(Nc3ccc(Cl)cc3[S+]([O-])C(C)C)n2)c(OC)cc1C1CCN(C)CC1 (centres unmarked) [9j, N-(5-((5-Chloro-4-((4-chloro-2-(isopropylsulfinyl)phenyl)amino)pyrimidin-2-yl)amino)-4-methoxy-2-(1-methylpiperidin-4-yl)phenyl)acrylamide]",IC50,"[1]; NCI-H1975, 72 h, CCK8 assay, 72 h, H1975 (EGFR T790M/L858R), read-out: IC50 H1975",78.3 ± 30 nM
same,IC50,"[1]; NCI-H1975, H1975, mean ± SE, unit inferred, read-out: IC50 H1975 (Table 2)",78.3 ± 30 nM
same,expression of p-ALK,p-ALK,inhibited
same,scratch healing rate,H1975 cells,clearly decreased
same,expression of p-EGFR,p-EGFR,inhibited
same,"Selectivity Ratio (IC50 human normal cells)/(IC50 H1975), HLF",[2]; HLF vs H1975,357.3
same,IC50,"[2]; Homo sapiens, Fibroblast, HLF, mean ± SE, read-out: Toxicity to normal cells, IC50 HLF",27870 ± 10 nM
same,expression of p-ERK,p-ERK,inhibited
same,IC50,EGFR wild-type kinase,236 ± 27 nM
same,IC50,H2228 (EML4-ALK) cells,81.8 ± 20 nM
same,expression level of phosphorylated ALK protein,[3],decreased significantly
